Data taken from patent US6835382B2, “Ii peptide therapeutics to enhance antigen presentation” (University of Massachusetts, priority 1996, dated 2004).
Non-standard residues stand in square brackets, D forms with d. hArg = N=C(N)NCCCC[C@H](N)C(=O)O

System: murine E^k MHC class II allele
Test: antigenic peptide prepulse assay, E^k allele (fixed APC prepulsed with PGCC81-104)
Type: cell-based
Conditions: for Activity in antigenic peptide prepulse assay, E^k (baseline = 1): Table 23, as printed: antigenic peptide prepulse 64 μM, AE peptide 1:8 μM; for Activity in antigenic peptide prepulse assay, E^k (baseline = 1.0): prepulse 1.25 μM antigenic peptide
Method: In a second type of assay, the “peptide prepulse assay”, the antigenic peptide is incubated with paraformaldehyde-fixed APC for 6 h. The APC are washed and incubated for 24 h with the AE101 series homolog and the T cell hybridoma specific for the antigenic peptide. After that incubation, an aliquot of the culture supernatant is transferred to a second culture to measure the relative degree of T hybridoma stimulation, as reflected in the effect of released interleukins on the growth of an interleukin-dependent, indicator cell line, as described above.
The two above described assays measure different aspects of the molecular mechanism of the AE101 series of peptides. In the “simultaneous assay”, AE101 series peptides are thought to induce the release of endogenously bound peptides and to permit the binding of the second, specific antigenic peptide which is relatively abundant in the culture fluid. The AE101 series peptides enhance antigenic peptide-specific T cell responses in simultaneous assays. In the “peptide prepulse” assay, the specific antigenic peptide becomes bound to MHC class II molecules on the surface of the fixed APC during the 6 h prepulse incubation. The effect of the AE101 series homologs is then thought to release that antigenic peptide, resulting in an apparent suppression of the immune response.
The AE101 series peptides are thought to contact the MHC class II molecules at a discrete site outside the antigenic peptide-binding groove. AE101 peptide binding to this “Ii-KEY” site is thought to induce a conformational change in the MHC class II molecules accelerating the dissociation of previously bound antigenic peptide. […] The AE101 series peptides thus inhibit antigenic peptide-specific T cell responses in the “peptide prepulse” assays.
Antigenic peptide-specific T cell activation was measured by the following procedure. Mitomycin C-treated A20 cells (A^dE^d) or CH27 cells APC (A^kE^k) were generated by incubating 5×10^6 cells/mL for 20 min at 37° C. with 0.025 mg/mL of mitomycin C (Sigma) in Dulbecco's Modified Eaglel's Medium (DMEM)/10 mM N-2(hydroxyethylpiperazine-N″[2-ethanesulfonic acid] (HEPES), followed by two washes with four volumes of DMEM-5% fetal calf serum (FCS), 10 mM HEPES. Fixed APC were generated by treating 1×10^6 cells/mL for 5 min with 0.5% paraformaldehyde in PBS (pH 7.2), followed by two washes with four volumes of DMEM-10% FCS, 10 mM HEPES. T cell hybridomas were irradiated 2200 rads before each assay.
The “peptide prepulse assay” was carried out under essentially the same conditions as described for the “simultaneous assay” with the following modifications. Fixed APC were first incubated for 6 h at 1×10^6 cells/mL in complete DMEM-5% FCS in 24-well microculture plates (1 mL/well) with antigenic peptide, followed by four washes with 10 volumes of DMEM-5% FCS. The cells were then exposed to varying concentrations of AE101 series peptide (64 μM, 16 μM, 4 μM, and 1 μM) for 24 h in the presence of the T cell hybridoma specific to the antigenic peptide. Interleukin release from these cultures was measured by proliferation of HT-2 cells to interleukins in supernatants transferred from the primary culture. Generally, a single dose of 64 μM of each AE101 series peptide was used. The baseline T cell response was measured by culturing T hybridoma cells with the antigenic peptide-prepulsed APC in the absence of AE101 series peptides.
Table 19: Activities of C-terminal truncation analogs of AE101 in an antigenic peptide prepulse assay. […] Paraformaldehyde-treated APC (fixed APC) expressing MHC class II molecules were incubated with antigenic peptide for 6 h (HEL106-116 for E^d and PGCC81-104 for E^k). After this incubation, the prepulsed APC were washed and cultured with T hybridoma cells and AE101 series peptides. The antigenic peptide concentration during the prepulse was 12 μM for Ed and 20 μM for E^k. The AE101 series peptide concentrations were 64 μM for E^d and 16 μM for E^k. […]

[1] = Table 24, AE peptide 64 μM, prepulse 0.625 μM antigenic peptide, supernatant 1:8
[2] = Table 25, AE peptide 64 μM, prepulse 2.5 μM antigenic peptide, supernatant 1:10
[3] = Table 22, AE peptide 16 μM, prepulse 20 μM antigenic peptide, supernatant 1:2
[4] = Table 26, AE peptide 64 μM, supernatant 1:8

Substance	Activity in antigenic peptide prepulse assay, E^k (baseline = 1.00) [1]	Activity in antigenic peptide prepulse assay, E^k (baseline = 1.00) [2]	other results
Ac- (mL) RMKLPK-NH2 [AE174]	0.81	–	Activity in antigenic peptide prepulse assay, E^k (baseline = 1) (supernatant 1:2): 0.81
Ac-ARMKLPKSAK-NH2 [AE120]	–	0.62	–
Ac-ARMKNPK-NH2 [AE345]	–	0.86	–
Ac-ARNKLPK-NH2 [AE344]	–	0.76	–
Ac-ARNKNPF-NH2 [AE347]	–	1.10	–
Ac-ARNKNPK-NH2 [AE346]	–	0.77	–
Ac-L r MKLPK-NH2 [AE161]	–	–	Activity in antigenic peptide prepulse assay, E^k (baseline = 1.00) [3]: 0.85
Ac-LR (mL) KLPK-NH2 [AE302]	0.85	–	–
Ac-LR (mL) KYPK-NH2 [AE303]	1.00	–	–
Ac-LR (mL) KYPk-NH2 [AE305]	0.91	–	–
Ac-LR (mL) KyPK-NH2 [AE304]	0.76	–	–
Ac-LR (mL) KyPk-NH2 [AE306]	1.00	–	–
Ac-LR HArg KLPK-NH2 [AE197]	–	–	Activity in antigenic peptide prepulse assay, E^k (baseline = 1.0) [4]: 0.96
Ac-LR L KLPK-NH2 (Ac-LRLKLPK-NH2; not fully specified; printed as Ac-LR L KLPK-NH2) [AE206]	1.00	0.68	Activity in antigenic peptide prepulse assay, E^k (baseline = 1.0) [4]: 0.96
Ac-LR N KLPK-NH2 (Ac-LRNKLPK-NH2) [AE202]	–	0.84	–
Ac-LR m KLPK-NH2 [AE162]	–	–	Activity in antigenic peptide prepulse assay, E^k (baseline = 1.00) [3]: 0.61
Ac-LRLK HArg PK-NH2 [AE341]	–	1.10	–
Ac-LRLKWPK-NH2 [AE309]	0.81	0.93	Activity in antigenic peptide prepulse assay, E^k (baseline = 1.0) [4]: 0.98
Ac-LRLKYPK-NH2 [AE301]	0.80	0.86	Activity in antigenic peptide prepulse assay, E^k (baseline = 1.0) [4]: 0.99
Ac-LRLKYPk-NH2 [AE307]	1.10	–	–
Ac-LRLKyPK-NH2 [AE308]	0.63	–	–
Ac-LRM M LPK-NH2 (Ac-LRMMLPK-NH2) [AE220]	–	–	Activity in antigenic peptide prepulse assay, E^k (baseline = 1.0) [4]: 0.92
Ac-LRM k LPK-NH2 [AE163]	–	–	Activity in antigenic peptide prepulse assay, E^k (baseline = 1.00) [3]: 0.99
Ac-LRMK (mL) PK-NH2 [AE175]	0.87	–	Activity in antigenic peptide prepulse assay, E^k (baseline = 1) (supernatant 1:2): 0.87
Ac-LRMK HArg PK-NH2 (Ac-LRMK[hArg]PK-NH2; SMILES CSCC[C@H](NC(=O)[C@H](CCCNC(=N)N)NC(=O)[C@H](CC(C)C)NC(C)=O)C(=O)N[C@@H](CCCCN)C(=O)N[C@@H](CCCCNC(=N)N)C(=O)N1CCC[C@H]1C(=O)N[C@@H](CCCCN)C(N)=O) [AE227]	–	0.87	–
Ac-LRMK N PK-NH2 (Ac-LRMKNPK-NH2) [AE232]	–	0.92	–
Ac-LRMK Y PK-NH2 (Ac-LRMKYPK-NH2; not fully specified; printed as Ac-LRMK Y PK-NH2) [AE235]	0.80	0.76	Activity in antigenic peptide prepulse assay, E^k (baseline = 1.0) [4]: 0.60; T cell response relative to baseline without AE peptide (None = 1.0), E^k (Table 27, antigenic peptide prepulse 1.25 μM, AE101 series peptide 64 μM, HT-2 supernatant dilution 1:8): 0.83; Activity in antigenic peptide prepulse assay, E^k (baseline = 1.0) (Table 28, AE peptide 64 μM, supernatant 1:4): 0.80
Ac-LRMK l PK-NH2 [AE164]	0.67	–	Activity in antigenic peptide prepulse assay, E^k (baseline = 1.00) [3]: 0.21
Ac-LRMKL p K-NH2 [AE165]	–	–	Activity in antigenic peptide prepulse assay, E^k (baseline = 1.00) [3]: 0.22
